Earlier results, collected in patent publication US7083961B1 (priority 2002, dated 2006).

Target: T. foetus IMPDH (Tritrichomonas foetus, UniProt P50097)
Details: T. foetus enzyme, without cofactor bound

T. foetus IMPDH, sequence (P50097 whole entry): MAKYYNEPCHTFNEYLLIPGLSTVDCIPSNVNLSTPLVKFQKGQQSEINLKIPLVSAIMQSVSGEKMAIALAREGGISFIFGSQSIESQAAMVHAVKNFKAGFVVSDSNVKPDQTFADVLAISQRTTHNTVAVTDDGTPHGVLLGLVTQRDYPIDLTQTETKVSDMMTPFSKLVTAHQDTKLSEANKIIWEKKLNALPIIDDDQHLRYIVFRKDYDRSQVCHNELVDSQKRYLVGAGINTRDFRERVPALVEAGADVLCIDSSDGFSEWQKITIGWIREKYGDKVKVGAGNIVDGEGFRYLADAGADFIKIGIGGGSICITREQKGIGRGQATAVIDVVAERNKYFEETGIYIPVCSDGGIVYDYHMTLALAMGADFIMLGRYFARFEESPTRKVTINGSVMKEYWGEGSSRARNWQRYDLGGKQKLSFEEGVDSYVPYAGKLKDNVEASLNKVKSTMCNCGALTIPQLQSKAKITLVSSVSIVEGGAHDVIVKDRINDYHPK

In the case of `O=c1[nH]c(=O)c2ncn([C@@H]3O[C@H](COP(=O)(O)O)[C@@H](O)[C@H]3O)c2[nH]1` [XMP, xanthosine monophosphate], the off-rate is given as 17 s⁻¹.
